From the supplement of paper PMC7695840
pIC50: −log10 of the molar value. Values joined by “and” are separate entries in the source; they are usually repeats but may differ in a detail not shown here. Equal entries are not always repeated. Structures can show the parent of a compound that is named as a salt.

Experiments:
[1] = system: Staphylococcus aureus MW2 delta-mecA (mecA-); assay: IC50 (growth, competition assay); settings: cefoxitin: subinhibitory
Outline: (§1)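 Signals from DsRed (540/590) and GFP (485/520) were scaled on every plate between single-strain control medians, with No Treatment then set to 0.5. The cells were a 1:1 mix of pre-induced fluorescent S. aureus MW2 strains with and without the resistance gene, grown unshaken for 20 h at 37 °C and 90% humidity in LB in 1536-well plates under a subinhibitory drug dose set each day. Each strain's IC50 was defined as the dose halving the No Treatment signal, or the maximal signal.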

[2] = system: Staphylococcus aureus MW2 (mecA+); assay: IC50 (growth, competition assay); settings: cefoxitin: subinhibitory
Outline: as §1

Structure (SMILES) | pIC50 ([1]; fluorescent label: DsRed) | pIC50 ([1]; fluorescent label: GFP) | pIC50 ([2]; fluorescent label: DsRed) | pIC50 ([2]; fluorescent label: GFP)
C[C@@H](O)[C@H]1C(=O)N2C(C(=O)O)=C(S[C@@H]3CN[C@H](CNS(N)(=O)=O)C3)[C@H](C)[C@H]12 [Doripenem Hydrate] | 3.86 | 3.89 | < 3.82 | < 3.82
C[C@H]1O[C@@H](n2cc(F)c(=O)[nH]c2=O)[C@H](O)[C@@H]1O [Doxifluridine] | 6.18 | > 6.30 | 5.41 | 4.96
C[C@H]1c2cccc(O)c2C(=O)C2=C(O)[C@]3(O)C(=O)C(C(N)=O)=C(O)[C@@H](N(C)C)[C@@H]3[C@@H](O)[C@@H]21 [Doxycycline HCl] | > 5.01 | > 5.01 | > 5.01 | > 5.01
C[C@H]1c2cccc(O)c2C(=O)C2=C(O)[C@]3(O)C(=O)C(C(N)=O)=C(O)[C@@H](N(C)C)[C@@H]3[C@@H](O)[C@@H]21 [Doxycycline hydrochloride] | > 5.01 | > 5.01 | > 5.01 | > 5.01
CCCCc1oc2ccc(NS(C)(=O)=O)cc2c1C(=O)c1ccc(OCCCN(CCCC)CCCC)cc1 [Dronedarone HCl (Multaq)] | 5.23 | 5.51 | 4.84 | 4.83
O=c1c2ccccc2[se]n1-c1ccccc1 [EBSELEN] | > 5.01 | > 5.01 | > 5.01 | > 5.01
CCOc1nc2cccc(C(=O)OCc3oc(=O)oc3C)c2n1Cc1ccc(-c2ccccc2-c2noc(=O)[nH]2)cc1 [EDARBI] | 4.89 | > 5.01 | 4.73 | 4.23
C=C(CC)C(=O)c1ccc(OCC(=O)O)c(Cl)c1Cl [EDECRIN] | > 5.01 | > 5.01 | 4.47 | 4.44
CN(C)CCC=C1c2ccccc2CCc2ccccc21 [ELAVIL] | 4.48 | 4.73 | 3.95 | 3.95
CCCCCCCCCCCCCCCC(=O)OC[C@H](O)[C@H]1OC(=O)C(O)=C1O [EMPROVE] | > 5.01 | > 5.01 | 4.28 | 4.06
Cc1cc(Nc2cc(N3CCN(C)CC3)nc(/C=C/c3ccccc3)n2)n[nH]1 [ENMD-2076] | 5.19 | 5.33 | 4.32 | 4.26
O=[N+]([O-])c1ccc(O)c2ncccc12 [ENTEROCOL] | 4.42 | > 5.01 | 4.79 | 4.26
O=C(O[C@@H]1Cc2c(O)cc(O)cc2O[C@@H]1c1ccc(O)c(O)c1)c1cc(O)c(O)c(O)c1 [EPICATECHIN MONOGALLATE] | 4.64 | 4.91 | 4.08 | 3.85
O=C(O[C@@H]1Cc2c(O)cc(O)cc2O[C@@H]1c1cc(O)c(O)c(O)c1)c1cc(O)c(O)c(O)c1 [EPIGALLOCATECHIN-3-MONOGALLATE] | > 5.01 | > 5.01 | 4.34 | 4.20
CC[C@H]1OC(=O)[C@H](C)[C@@H](O[C@H]2C[C@@](C)(OC)[C@@H](O)[C@H](C)O2)[C@H](C)[C@@H](O[C@@H]2O[C@H](C)C[C@H](N(C)C)[C@H]2O)[C@](C)(O)C[C@@H](C)C(=O)[C@H](C)[C@@H](O)[C@]1(C)O [ERYDERM] | > 5.01 | > 5.01 | > 5.01 | > 5.01
CCOC(=O)CCC(=O)O[C@H]1[C@H](O[C@@H]2[C@@H](C)[C@H](O[C@H]3C[C@@](C)(OC)[C@@H](O)[C@H](C)O3)[C@@H](C)C(=O)O[C@H](CC)[C@@](C)(O)[C@H](O)[C@@H](C)C(=O)[C@H](C)C[C@@]2(C)O)O[C@H](C)C[C@@H]1N(C)C [ERYPED] | > 5.01 | > 5.01 | > 5.01 | > 5.01
C/C=C(/C(=C/C)c1ccc(O)cc1)c1ccc(O)cc1 [ESTRAGUARD] | 4.73 | > 5.01 | 4.51 | 4.28
CO[C@H]1C[C@H](O[C@H]2[C@H](C)[C@@H](O[C@@H]3O[C@H](C)C[C@H](N(C)C)[C@H]3OC(C)=O)[C@@H](C)C[C@@]3(CO3)C(=O)[C@H](C)[C@@H](OC(C)=O)[C@@H](C)[C@@H](C)OC(=O)[C@@H]2C)O[C@@H](C)[C@@H]1OC(C)=O [EVRAMYCIN] | > 5.01 | > 5.01 | 4.47 | 4.56
CO/N=C(\C(=O)N[C@@H]1C(=O)N2C(C(=O)O)=C(CSC(=O)c3ccco3)CS[C@H]12)c1csc(N)n1 [EXCENEL] | > 5.01 | > 5.01 | > 5.01 | > 5.01
O=C1OC(c2ccc(O)cc2)(c2ccc(O)cc2)c2ccccc21 [EXLAX] | 4.30 | 4.23 | 3.95 | 4.28
CC(C)(C)c1ccc(C(=O)CCCN2CCC(OC(c3ccccc3)c3ccccc3)CC2)cc1 [Ebastine] | > 5.01 | > 5.01 | 4.78 | 4.81
CCN1CCN(c2cc3c(cc2F)c(=O)c(C(=O)O)cn3C2CC2)CC1 [Enrofloxacin] | > 5.01 | > 5.01 | > 5.01 | > 5.01
CC[C@H]1OC(=O)[C@H](C)[C@@H](O[C@H]2C[C@@](C)(OC)[C@@H](O)[C@H](C)O2)[C@H](C)[C@@H](O[C@@H]2O[C@H](C)C[C@H](N(C)C)[C@H]2O)[C@](C)(O)C[C@@H](C)C(=O)[C@H](C)[C@@H](O)[C@]1(C)O [Erythromycin (E-Mycin)] | > 6.30 | > 6.30 | 5.85 | 5.79
CCOC(=O)CCC(=O)O[C@H]1[C@H](O[C@@H]2[C@@H](C)[C@H](O[C@H]3C[C@@](C)(OC)[C@@H](O)[C@H](C)O3)[C@@H](C)C(=O)O[C@H](CC)[C@@](C)(O)[C@H](O)[C@@H](C)C(=O)[C@H](C)C[C@@]2(C)O)O[C@H](C)C[C@@H]1N(C)C [Erythromycin Ethylsuccinate] | > 5.01 | > 5.01 | > 5.01 | > 5.01
COc1cc([C@@H]2c3cc4c(cc3[C@@H](O[C@@H]3O[C@@H]5CO[C@@H](C)O[C@H]5[C@H](O)[C@H]3O)[C@H]3COC(=O)[C@H]23)OCO4)cc(OC)c1O [Etoposide] | > 5.01 | > 5.01 | 4.83 | 4.83
O=C1[C@H](CC[C@H](O)c2ccc(F)cc2)[C@@H](c2ccc(O)cc2)N1c1ccc(F)cc1 [Ezetimibe (Zetia)] | 4.60 | 4.83 | 4.10 | 3.97
CO/N=C1\CN(c2nc3c(cc2F)c(=O)c(C(=O)O)cn3C2CC2)CC1CN (configuration not stated) [FACTIVE] | > 5.01 | > 5.01 | > 5.01 | > 5.01

Structure (SMILES) | pIC50 ([1]; fluorescent label: DsRed) | pIC50 ([1]; fluorescent label: GFP) | pIC50 ([2]; fluorescent label: DsRed) | pIC50 ([2]; fluorescent label: GFP)
Oc1c(Br)cc(Br)c2cccnc12 [FENILOR] | > 5.01 | > 5.01 | > 5.01 | 4.87
Cc1cc2nc3c(=O)[nH]c(=O)nc-3n(C[C@H](O)[C@H](O)[C@H](O)CO)c2cc1C [FLAVAXIN] | < 3.82 | < 3.82 | < 3.82 | < 3.82
CC1COc2c(N3CCN(C)CC3)c(F)cc3c(=O)c(C(=O)O)cn1c23 (configuration not stated) [FLOXIN] | > 5.01 | > 5.01 | > 5.01 | > 5.01
O=c1[nH]c(=O)n([C@H]2C[C@H](O)[C@@H](CO)O2)cc1F [FLOXURIDINE] | > 5.01 | > 5.01 | > 5.01 | > 5.01
Cc1cc(C(C#N)c2ccc(Cl)cc2)c(Cl)cc1NC(=O)c1cc(I)cc(I)c1O (configuration not stated) [FLUKIVER] | > 5.01 | > 5.01 | > 5.01 | > 5.01
Cc1cc(N)c2ccccc2[n+]1CCCCCCCCCC[n+]1c(C)cc(N)c2ccccc21 [FLUOMIZIN] | > 5.01 | > 5.01 | 4.88 | 4.91
CC(=O)[C@H]1CC[C@H]2[C@@H]3CC=C4C[C@@H](OC(=O)CCC(=O)O)CC[C@]4(C)[C@H]3CC[C@]12C [FORMULA-405] | 4.74 | 4.75 | 4.74 | 4.46
CC(=O)O[C@H]1C[C@@]2(C)[C@@H](C[C@@H](O)[C@H]3[C@@]4(C)CC[C@@H](O)[C@@H](C)[C@@H]4CC[C@@]32C)/C1=C(\CCC=C(C)C)C(=O)O [FUCIDINE] | > 5.01 | > 5.01 | > 5.01 | > 5.01
O=C1OC(CN2CCOCC2)CN1/N=C/c1ccc([N+](=O)[O-])o1 (configuration not stated) [FURALTADONE] | 4.94 | 4.73 | 4.75 | 4.82
O=C1OCCN1/N=C/c1ccc([N+](=O)[O-])o1 [FUROXONE] | > 5.01 | > 5.01 | > 5.01 | > 5.01
C[C@H]1O[C@@H](n2cc(F)c(=O)[nH]c2=O)[C@H](O)[C@@H]1O [FURTULON] | > 5.01 | > 5.01 | 4.99 | > 5.01
CCOC(=O)C1=C(C)NC(C)=C(C(=O)OC)C1c1cccc(Cl)c1Cl (configuration not stated) [Felodipine (Plendil)] | 5.15 | 5.16 | 4.65 | 4.50
CCOC(=O)C1=C(C)NC(C)=C(C(=O)OC)C1c1cccc(Cl)c1Cl (configuration not stated) [Felodipine] | > 5.01 | > 5.01 | 4.56 | 4.49
COc1cccc2c1[C@@H]1CN(CCCCn3c(=O)[nH]c4c(sc5ncc(-c6ccccc6)nc54)c3=O)C[C@@H]1CO2 [Fiduxosin hydrochloride] | 4.98 | 4.90 | 4.54 | 4.53
CCCCCCCCc1ccc(CCC(N)(CO)CO)cc1 [Fingolimod (FTY720)] | 4.93 and > 5.01 | 4.97 and > 5.01 | 4.82 and 4.83 | 4.73 and 4.83
O=c1[nH]c(=O)n([C@H]2C[C@H](O)[C@@H](CO)O2)cc1F [Floxuridine] | > 6.30 | > 6.30 | > 6.30 | > 6.30
CC1CCc2cc(F)cc3c(=O)c(C(=O)O)cn1c23 (configuration not stated) [Flumequine] | > 5.01 | > 5.01 | > 5.01 | > 5.01
C[C@@H](O[C@H]1OCCN(Cc2nn(P(=O)(O)O)c(=O)[nH]2)[C@H]1c1ccc(F)cc1)c1cc(C(F)(F)F)cc(C(F)(F)F)c1 [Fosaprepitant dimeglumine] | 4.77 | 4.50 | 4.27 | 4.31
CC(=O)O[C@H]1C[C@@]2(C)[C@@H](C[C@@H](O)[C@H]3[C@@]4(C)CC[C@@H](O)[C@@H](C)[C@@H]4CC[C@@]32C)/C1=C(\CCC=C(C)C)C(=O)O [Fusidic acid sodium] | > 5.01 | > 5.01 | > 5.01 | > 5.01
CC(C)=CCC[C@]1(C)C=Cc2c(O)c3c(c(CC=C(C)C)c2O1)O[C@]12C(=C[C@@H]4C[C@H]1C(C)(C)O[C@@]2(C/C=C(/C)C(=O)O)C4=O)C3=O [GAMBOGIC ACID] | > 5.01 | > 5.01 | > 5.01 | > 5.01
COC(=O)c1c(OC)cc2c(c1C)Oc1c(Cl)c(O)c(Cl)c(C)c1C(=O)O2 [GANGALEOIDIN] | 4.42 | > 5.01 | > 5.01 | 4.20
CC(C)=CCCC1(C)C=Cc2c(O)c3c(c(CC=C(C)C)c2O1)OC12C(=CCCC1C(C)(C)O[C@@]2(C/C=C(\C)C(=O)O)C(=O)O)C3=O (some centres not stated) [GARCINOLIC ACID] | > 5.01 | > 5.01 | > 5.01 | 4.83
CN[C@@H]1[C@@H](O)[C@@H](O[C@@H]2[C@@H](O)[C@H](O[C@H]3O[C@H]([C@@H](C)O)[C@@H](O)[C@H](O)[C@H]3N)[C@@H](N)C[C@H]2N)OC[C@]1(C)O [GENETICIN] | > 5.01 | 4.91 | > 5.01 | 4.90
Cc1cc2c(C(C)C)c(O)c(O)c(C=O)c2c(O)c1-c1c(C)cc2c(C(C)C)c(O)c(O)c(C=O)c2c1O [GOSSYPOL] | > 5.01 | > 5.01 | > 5.01 | > 5.01
CN(C)c1ccc(C(=C2C=CC(=[N+](C)C)C=C2)c2ccc(N(C)C)cc2)cc1 [GVS] | > 5.01 | > 5.01 | > 5.01 | > 5.01
Cc1cc(SCc2sc(-c3ccc(C(F)(F)F)c(F)c3)nc2C)ccc1OCC(=O)O [GW0742] | > 5.01 | > 5.01 | 4.93 | 4.82
